Test results reported in PubChem BioAssay AID248 (DTP/NCI, 2004).
Several values for one entry are separate records, joined by “and”; a condition that tells them apart may be missing. Equal entries are not always repeated. Inconclusive results and toxic doses are left out. No stated cut-off is given here; in the data, active means T/C of 150% or more; inactive means T/C below 125%.

System: L1210 leukemia ip in BDF1 mice, survival T/C
Experiment: NCI In Vivo Anticancer Drug Screen. Data for tumor model L1210 Leukemia (intraperitoneal) in B6D2F1 (BDF1) mice
Details: endpoint: mean survival time, higher = longer survival
Method in brief: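 Transplantable tumor model; survival measured in treated vs vehicle control mice. Value = treated/control.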

[1] = dose: 100.0 mg/kg/injection, schedule: Q04DX002 (ip), vehicle: Klucel (hydroxypropylcellulose) (HPC)
[2] = dose: 200.0 mg/kg/injection, schedule: Q04DX002 (ip), vehicle: Klucel (hydroxypropylcellulose) (HPC)
[3] = dose: 400.0 mg/kg/injection, schedule: Q04DX002 (ip), vehicle: Klucel (hydroxypropylcellulose) (HPC)
[4] = dose: 100.0 mg/kg/injection, schedule: Q01DX001 (ip), vehicle: saline
[5] = dose: 200.0 mg/kg/injection, schedule: Q01DX001 (ip), vehicle: saline
[6] = dose: 400.0 mg/kg/injection, schedule: Q01DX001 (ip), vehicle: saline
[7] = dose: 200.0 mg/kg/injection, schedule: Q01DX001 (ip), vehicle: Klucel (hydroxypropylcellulose) (HPC)
[8] = dose: 400.0 mg/kg/injection, schedule: Q01DX001 (ip), vehicle: Klucel (hydroxypropylcellulose) (HPC)
[9] = dose: 50.0 mg/kg/injection, schedule: Q01DX009 (ip), vehicle: saline with Tween-80
[10] = dose: 100.0 mg/kg/injection, schedule: Q01DX009 (ip), vehicle: saline with Tween-80
[11] = dose: 200.0 mg/kg/injection, schedule: Q01DX009 (ip), vehicle: saline with Tween-80
[12] = dose: 400.0 mg/kg/injection, schedule: Q01DX009 (ip), vehicle: saline with Tween-80

Measured: T/C

COC(=O)c1cc2nc(C(C)C)n(Cc3ccccc3)c2cc1C(=O)OC
inactive: dose: 100.0 mg/kg/injection, schedule: Q01DX001 (ip), vehicle: other 99 % of control | dose: 100.0 mg/kg/injection, schedule: Q01DX009 (ip), vehicle: other 104 % of control and 87 % of control | [1] 105 % of control | dose: 100.0 mg/kg/injection, schedule: Q04DX002 (ip), vehicle: other 102 % of control and 91 % of control | dose: 100.0 mg/kg/injection, schedule: Q04DX003 (ip), vehicle: other 107 % of control | dose: 200.0 mg/kg/injection, schedule: Q01DX001 (ip), vehicle: other 100 % of control | dose: 200.0 mg/kg/injection, schedule: Q01DX009 (ip), vehicle: other 101 % of control and 90 % of control | [2] 98 % of control | dose: 200.0 mg/kg/injection, schedule: Q04DX002 (ip), vehicle: other 95 % of control and 108 % of control | dose: 200.0 mg/kg/injection, schedule: Q04DX003 (ip), vehicle: other 109 % of control | dose: 400.0 mg/kg/injection, schedule: Q01DX001 (ip), vehicle: other 89 % of control | dose: 400.0 mg/kg/injection, schedule: Q01DX009 (ip), vehicle: other 97 % of control and 106 % of control | [3] 102 % of control | dose: 400.0 mg/kg/injection, schedule: Q04DX002 (ip), vehicle: other 95 % of control and 107 % of control | dose: 400.0 mg/kg/injection, schedule: Q04DX003 (ip), vehicle: other 105 % of control

c1ccc(CN2C3C(c4ccccc4)=NN=C(c4ccccc4)C32)cc1 (configuration not stated)
inactive: [4] 98 % of control | [5] 102 % of control | [6] 102 % of control

COc1ccc(Cl)cc1[N+](=O)[O-]
inactive: [7] 95 % of control | [8] 95 % of control

CCC(CC)COCCCN
inactive: dose: 12.5 mg/kg/injection, schedule: Q01DX009 (ip), vehicle: saline with Tween-80 97 % of control | dose: 12.5 mg/kg/injection, schedule: Q04DX003 (ip), vehicle: saline with Tween-80 97 % of control | dose: 25.0 mg/kg/injection, schedule: Q01DX009 (ip), vehicle: saline with Tween-80 98 % of control | dose: 25.0 mg/kg/injection, schedule: Q04DX003 (ip), vehicle: saline with Tween-80 95 % of control | [9] 93 % of control | dose: 50.0 mg/kg/injection, schedule: Q04DX003 (ip), vehicle: saline with Tween-80 94 % of control

CC(C)(C(=Nc1ccccc1)N1CCCCC1)c1ccccc1
inactive: dose: 75.0 mg/kg/injection, schedule: Q01DX001 (ip), vehicle: saline 97 % of control | dose: 150.0 mg/kg/injection, schedule: Q01DX001 (ip), vehicle: saline 94 % of control | dose: 300.0 mg/kg/injection, schedule: Q01DX001 (ip), vehicle: saline 96 % of control

O=S1(=O)C(Cc2ccccc2)CCC1Cc1ccccc1 (configuration not stated)
inactive: dose: 100.0 mg/kg/injection, schedule: Q04DX003 (ip), vehicle: Klucel (hydroxypropylcellulose) (HPC) 102 % of control | dose: 200.0 mg/kg/injection, schedule: Q04DX003 (ip), vehicle: Klucel (hydroxypropylcellulose) (HPC) 94 % of control | dose: 400.0 mg/kg/injection, schedule: Q04DX003 (ip), vehicle: Klucel (hydroxypropylcellulose) (HPC) 102 % of control

O=C(Oc1ccc([N+](=O)[O-])cc1)c1ccc(CBr)cc1
inactive: dose: 50.0 mg/kg/injection, schedule: Q01DX009 (ip), vehicle: saline 104 % of control | dose: 100.0 mg/kg/injection, schedule: Q01DX009 (ip), vehicle: saline 102 % of control | dose: 100.0 mg/kg/injection, schedule: Q04DX003 (ip), vehicle: saline 94 % of control | dose: 200.0 mg/kg/injection, schedule: Q01DX009 (ip), vehicle: saline 94 % of control | dose: 200.0 mg/kg/injection, schedule: Q04DX003 (ip), vehicle: saline 94 % of control

CCC1=NNC(=O)C1(Br)Br
inactive: dose: 5.0 mg/kg/injection, schedule: Q01DX001 (ip), vehicle: saline 105 % of control | dose: 10.0 mg/kg/injection, schedule: Q01DX001 (ip), vehicle: saline 100 % of control | dose: 20.0 mg/kg/injection, schedule: Q01DX001 (ip), vehicle: saline 100 % of control | dose: 40.0 mg/kg/injection, schedule: Q01DX001 (ip), vehicle: saline 97 % of control | dose: 80.0 mg/kg/injection, schedule: Q01DX001 (ip), vehicle: saline 103 % of control

COC(c1ccccc1)(c1ccccc1)C(C)O (configuration not stated)
inactive: [9] 87 % of control | [10] 97 % of control | [11] 103 % of control

c1ccc2c(c1)CCc1c-2[nH]c2c1ccc1ccccc12
inactive: [4] 91 % of control | [5] 111 % of control | [6] 94 % of control

O=C(Nc1ccccn1)c1ccccc1
inactive: dose: 100.0 mg/kg/injection, schedule: Q04DX002 (ip), vehicle: saline with Tween-80 99 % of control

Nc1ccc2c(c1)/C(=N/O)c1cc([N+](=O)[O-])ccc1-2
inactive: dose: 100.0 mg/kg/injection, schedule: Q01DX001 (ip), vehicle: carboxymethylcellulose (CMC) 100 % of control | dose: 200.0 mg/kg/injection, schedule: Q01DX001 (ip), vehicle: carboxymethylcellulose (CMC) 105 % of control | dose: 400.0 mg/kg/injection, schedule: Q01DX001 (ip), vehicle: carboxymethylcellulose (CMC) 112 % of control

O=C(Nc1cccc(Cl)c1)c1ccc2ccccc2c1O
inactive: dose: 100.0 mg/kg/injection, schedule: Q01DX001 (ip), vehicle: saline with Tween-80 97 % of control | [10] 106 % of control | dose: 100.0 mg/kg/injection, schedule: Q04DX003 (ip), vehicle: saline with Tween-80 98 % of control | dose: 200.0 mg/kg/injection, schedule: Q01DX001 (ip), vehicle: saline with Tween-80 93 % of control | [11] 98 % of control | dose: 200.0 mg/kg/injection, schedule: Q04DX003 (ip), vehicle: saline with Tween-80 96 % of control | dose: 400.0 mg/kg/injection, schedule: Q01DX001 (ip), vehicle: saline with Tween-80 97 % of control | [12] 101 % of control | dose: 400.0 mg/kg/injection, schedule: Q04DX003 (ip), vehicle: saline with Tween-80 96 % of control

O=C(Nc1ccccc1F)OCCOc1ccccc1
inactive: dose: 100.0 mg/kg/injection, schedule: Q01DX001 (ip), vehicle: Klucel (hydroxypropylcellulose) (HPC) 97 % of control | dose: 100.0 mg/kg/injection, schedule: Q01DX009 (ip), vehicle: Klucel (hydroxypropylcellulose) (HPC) 95 % of control and 97 % of control | [1] 98 % of control and 115 % of control | [7] 97 % of control | dose: 200.0 mg/kg/injection, schedule: Q01DX009 (ip), vehicle: Klucel (hydroxypropylcellulose) (HPC) 95 % of control and 102 % of control | [2] 106 % of control and 115 % of control | [8] 94 % of control | dose: 400.0 mg/kg/injection, schedule: Q01DX009 (ip), vehicle: Klucel (hydroxypropylcellulose) (HPC) 95 % of control and 103 % of control | [3] 100 % of control and 103 % of control

O=C(Nc1ccc(O)cc1)c1ccc(C(=O)Nc2ccc(O)cc2)cc1
inactive: dose: 15.0 mg/kg/injection, schedule: Q01DX Z (ip), vehicle: methylcellulose (MC) 112 % of control | dose: 30.0 mg/kg/injection, schedule: Q01DX Z (ip), vehicle: methylcellulose (MC) 93 % of control | dose: 60.0 mg/kg/injection, schedule: Q01DX Z (ip), vehicle: methylcellulose (MC) 98 % of control | dose: 120.0 mg/kg/injection, schedule: Q01DX Z (ip), vehicle: methylcellulose (MC) 98 % of control

N#CC(c1ccccc1)C(c1ccccc1)C(C(=O)c1ccccc1)c1ccccc1 (configuration not stated)
inactive: [10] 100 % of control | [11] 93 % of control | [12] 90 % of control
